Assay results from PMC8419835.

Assay: Head-to-tail amide by intramolecular native chemical ligation: N,S-acyl shift of a C-terminal N-2-[thioethyl]glycine residue on TentaGel, transthioesterification with 50 equiv external thiol (MESNa or MPAA), then attack by N-terminal Cys and S,N-acyl shift, one pot
Conditions: the molecule shown is the open-chain precursor, aqueous: procedure B citrate pH 3 then phosphate pH 7.4 (DTT), procedure C 1 M TEAB pH 7.0 (MPAA, DTT), resin, 48.0 h, 2 steps

With C[C@H](NC(=O)[C@H](CCCCN)NC(=O)[C@@H]1CCCN1C(=O)CNC(=O)[C@H](Cc1ccccc1)NC(=O)[C@@H](N)CS)C(=O)SCCS(=O)(=O)O the ring closure, yield over several steps (18-membered ring) was 25.8%.

Molecule C[C@H](NC(=O)[C@H](CCCCN)NC(=O)[C@@H]1CCCN1C(=O)[C@@H](N)CS)C(=O)SCCS(=O)(=O)O has a ring closure, yield over several steps (12-membered ring) of 24.1%.

Work on “H-Cys-Thr-Lys-Ser-Ile-Pro-Pro-Ile-Cys-Phe-Pro-Asp-Gly-Arg-[N-2-(thioethyl)Gly]-linker-TentaGel (linker Ala-Ala-Met or bAla-Ala-bAla-Met, text inconsistent; side chains unprotected, both Cys as free SH; via MPAA thioester)” yielded a ring closure, yield over several steps (42-membered ring) of 40%.

In the case of C[C@@H](O)[C@H](NC(=O)[C@H](Cc1ccccc1)NC(=O)[C@@H]1CCCN1C(=O)[C@H](CC(N)=O)NC(=O)[C@@H]1CCCN1C(=O)[C@H](Cc1ccccc1)NC(=O)[C@@H](N)CS)C(=O)Sc1ccc(CC(=O)O)cc1, the ring closure, yield over several steps (21-membered ring) is reported as 55%.

Work on “H-Cys-Arg-Cys-Leu-Cys-Arg-Arg-Gly-Val-Cys-Arg-Cys-Ile-Cys-Thr-Arg-Gly-Phe-[N-2-(thioethyl)Gly]-linker-TentaGel (linker Ala-Ala-Met or bAla-Ala-bAla-Met, text inconsistent; side chains unprotected, all Cys as free SH; via MPAA thioester)” yielded a ring closure, yield over several steps (54-membered ring) of 39%.
